pIC50: −log10 of the molar value.
target: T1, AuroraA-TPX2 (Homo sapiens, UniProt O14965); assay: AuroraA-TPX2 HTRF kinase assay (Aurora kinase A HTRF assay); assay type: biochemical
T1 construct: 20 μL of AuroraA-TPX2 KD GST for a final volume of 41 μL; GST
T1 sequence (O14965 133-383 limits assumed): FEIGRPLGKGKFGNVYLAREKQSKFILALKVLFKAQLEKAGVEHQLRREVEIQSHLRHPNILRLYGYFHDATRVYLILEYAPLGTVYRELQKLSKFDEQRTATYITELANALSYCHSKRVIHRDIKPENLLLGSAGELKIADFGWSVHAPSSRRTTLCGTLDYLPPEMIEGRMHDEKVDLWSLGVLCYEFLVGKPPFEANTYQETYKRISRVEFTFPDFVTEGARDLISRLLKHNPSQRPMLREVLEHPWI
T1 sequence (Q9ULW0 1-43 partner limits assumed): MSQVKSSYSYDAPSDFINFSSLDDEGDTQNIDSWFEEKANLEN
Method: AuroraA-TPX2-Homogeneous Time Resolved Fluorescent (HTRF) Kinase Assay:
The AuroraA HTRF assay begins with AuroraA in the presence of ATP phosphorylating the biotinylated peptide PLK. The reaction incubates for about 120 min. Detection reagents are added to quench the reaction. These agents stop the reaction by diluting out the enzyme and chelating the metals due to the presence of EDTA. After addition, the assay is incubated overnight to allow the detection reagents to equilibrate.
The AuroraA HTRF assay comprises 1 μL of compound in 100% DMSO, 20 μL of ATP and biotinylated PLK, and 20 μL of AuroraA-TPX2 KD GST for a final volume of 41 μL. The final concentration of PLK is about 1 μM. […] Buffer conditions are as follows: 60 mM HEPES pH 7.5, 25 mM NaCl, 10 mM MgCl, 2 mM DTT, 0.05% BSA.
The assay is quenched and stopped with 160 μL of detection reagent. Detection reagents are as follows: Buffer made of 50 mM Tris, pH 7.5, 100 mM NaCl, 3 mM EDTA, 0.05% BSA, 0.1% Tween20. Added to this buffer prior to reading is Steptavidin allophycocyanin (SA-APC) at a final conc in the assay of 0.0005 mg/mL, and europilated anti-phosphoPLK Ab (Eu-anti-PLK) at a final conc of 0.02 nM.
The assay plate is read in either a Discovery or a RubyStar. The eu-anti-PLK is excited at 320 nm and emits at 615 nm to excite the SA-APC which in turn emits at 655 nm. The ratio of SA-APC at 655 nm (excited due to close proximity to the Eu-anti-PLK because of phosphorylation of the peptide) to free Eu-anti-PLK at 615 nm will give substrate phosphorylation.

pIC50, ≥ 5.30:
Cn1cc(-c2ccccc2)nc1Nc1ccc(Oc2ncccc2-c2ccnc(N)n2)cc1 [Example 115, 4-(2-((4-((1-methyl-4-phenyl-1H-imidazol-2-yl)amino)phenyl)oxy)-3-pyridinyl)-2-pyrimidinamine]
CN1CCCC1CCNc1nccc(-c2cccnc2Oc2ccc(Nc3nc4ccccc4[nH]3)c3ccccc23)n1 (stereo not drawn) [Example 46, N-(4-((3-(2-((2-(1-methyl-2-pyrrolidinyl)ethyl)amino)-4-pyrimidinyl)-2-pyridinyl)oxy)-1-naphthalenyl)-1H-benzimidazol-2-amine]
Cc1ccc2nc(Nc3ccc(Oc4ncccc4-c4ccncn4)c(C)c3)oc2c1 [Example 48, 6-methyl-N-(3-methyl-4-((3-(4-pyrimidinyl)-2-pyridinyl)oxy)phenyl)-1,3-benzoxazol-2-amine]

— US7868177B2, “Multi-cyclic compounds and method of use” (Amgen Inc., priority 2006, dated 2011)
